Assay in all cases: ERK1/2 phosphorylation
Holding throughout (format): cell-based

Experiment [1] deals with T1, hCTR K366A (Homo sapiens, UniProt P30988, K366A).
T1 construct: c-Myc (N); expressed in transfected cells
T1 sequence (P30988 25-474 K366A): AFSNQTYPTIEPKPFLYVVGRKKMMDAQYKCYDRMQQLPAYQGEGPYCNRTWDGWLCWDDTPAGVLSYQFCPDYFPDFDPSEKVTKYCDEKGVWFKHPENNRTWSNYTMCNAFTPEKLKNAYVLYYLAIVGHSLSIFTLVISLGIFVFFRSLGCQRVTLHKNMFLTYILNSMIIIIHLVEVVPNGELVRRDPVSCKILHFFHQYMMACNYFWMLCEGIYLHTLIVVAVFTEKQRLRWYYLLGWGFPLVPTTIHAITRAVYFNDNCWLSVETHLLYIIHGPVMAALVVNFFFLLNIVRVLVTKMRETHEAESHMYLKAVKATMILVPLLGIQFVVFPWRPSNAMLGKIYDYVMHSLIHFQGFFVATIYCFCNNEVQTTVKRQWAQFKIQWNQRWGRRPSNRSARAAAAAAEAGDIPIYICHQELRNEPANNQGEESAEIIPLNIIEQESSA
The settings on record: CV1-FlpIn cells, mean ± S.E.M.; for Emax: pERK maximal response; for EC50: pERK, three-parameter logistic fit. In a few lines: (§1)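 EC50 and Emax values derive from three-parameter logistic curves and combine functional affinity, efficacy and stimulus-response coupling. Responses are normalized to 10% FBS (6 min).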

Experiment [2] addresses T2, hCTR R362A (Homo sapiens, UniProt P30988, R362A).
T2 construct: expressed in transfected cells
T2 sequence (P30988 25-474 R362A): T1 sequence (P30988 25-474 K366A) with R338A, A342K
Conditions: CV1-FlpIn cells, mean ± S.E.M.; for Emax: pERK maximal response; for EC50: pERK, three-parameter logistic fit. The method, boiled down: as §1

Experiment [3] concerns the target T3, hCTR S292A (Homo sapiens, UniProt P30988, S292A).
T3 construct: expressed in transfected cells
T3 sequence (P30988 25-474 S292A): T1 sequence (P30988 25-474 K366A) with S268A, A342K
Conditions: CV1-FlpIn cells, mean ± S.E.M.; for Emax: pERK maximal response; for EC50: pERK, three-parameter logistic fit. The method, boiled down:
as §1

Experiment [4] concerns the target T4, hCTR V375A (Homo sapiens, UniProt P30988, V375A).
T4 construct: c-Myc (N); expressed in transfected cells
T4 sequence (P30988 25-474 V375A): T1 sequence (P30988 25-474 K366A) with A342K, V351A
The settings on record: CV1-FlpIn cells, mean ± S.E.M.; for Emax: pERK maximal response; for EC50: pERK, three-parameter logistic fit. In a few lines: as §1

The target in experiment [5] is T5, hCTR Y299A (Homo sapiens, UniProt P30988, Y299A).
T5 construct: c-Myc (N); expressed in transfected cells
T5 sequence (P30988 25-474 Y299A): T1 sequence (P30988 25-474 K366A) with Y275A, A342K
The settings on record: CV1-FlpIn cells, mean ± S.E.M.; for Emax: pERK maximal response. In a few lines:
as §1

Changes are numbered by the printed parent chain. Where a SMILES comes first, the peptide text is derived from it. Bridges are numbered along the chain shown (N, C = ends).

What is called Emax is the greatest response seen or fitted, relative to the assay's reference. In the case of `CC(C)C[C@H](NC(=O)[C@H](CCCCN)NC(=O)CNC(=O)[C@H](CC(C)C)NC(=O)[C@@H](NC(=O)[C@@H]1CSSC[C@H](N)C(=O)N[C@@H](CO)C(=O)N[C@@H](CC(N)=O)C(=O)N[C@@H](CC(C)C)C(=O)N[C@@H](CO)C(=O)N[C@@H]([C@@H](C)O)C(=O)N1)C(C)C)C(=O)N[C@@H](CO)C(=O)N[C@@H](CCC(N)=O)C(=O)N[C@@H](CCC(=O)O)C(=O)N[C@@H](CC(C)C)C(=O)N[C@@H](Cc1c[nH]cn1)C(=O)N[C@@H](CCCCN)C(=O)N[C@@H](CC(C)C)C(=O)N[C@@H](CCC(N)=O)C(=O)N[C@H](C(=O)N[C@@H](Cc1ccc(O)cc1)C(=O)N1CCC[C@H]1C(=O)N[C@@H](CCCNC(=N)N)C(=O)N[C@H](C(=O)N[C@@H](CC(N)=O)C(=O)N[C@H](C(=O)NCC(=O)N[C@@H](CO)C(=O)NCC(=O)N[C@H](C(=O)N1CCC[C@H]1C(N)=O)[C@@H](C)O)[C@@H](C)O)[C@@H](C)O)[C@@H](C)O` [sCT], the Emax in experiment [1] amounted to 136 ± 5%; in experiment [2], 107 ± 10%; in experiment [3] it was 121 ± 7%; in experiment [4] it was 70 ± 3%; in experiment [5], 58 ± 4%.
Usually EC50 stands for the concentration giving half of the maximal effect. Higher therefore signals a less potent agent. As to `CSCC[C@H](NC(=O)CNC(=O)[C@H](CO)NC(=O)[C@H](Cc1ccccc1)NC(=O)[C@H](CCCNC(=N)N)NC(=O)[C@H](Cc1c[nH]cn1)NC(=O)[C@H](Cc1ccccc1)NC(=O)[C@H](CC(N)=O)NC(=O)[C@H](CC(N)=O)NC(=O)[C@H](CC(C)C)NC(=O)[C@H](CC(N)=O)NC(=O)[C@H](CCCNC(=N)N)NC(=O)[C@H](Cc1c[nH]c2ccccc12)NC(=O)[C@H](Cc1ccc(O)cc1)NC(=O)[C@H](C)NC(=O)[C@H](CO)NC(=O)[C@H](CC(C)C)NC(=O)[C@@H](NC(=O)[C@@H]1CSSC[C@H](N)C(=O)N[C@@H](CO)C(=O)N[C@@H](CC(N)=O)C(=O)N[C@@H](CC(C)C)C(=O)N[C@@H](CO)C(=O)N[C@@H]([C@@H](C)O)C(=O)N1)C(C)C)C(=O)NCC(=O)N[C@@H](Cc1ccccc1)C(=O)NCC(=O)N1CCC[C@H]1C(=O)N[C@@H](CCC(=O)O)C(=O)N[C@H](C(=O)N1CCC[C@H]1C(N)=O)[C@@H](C)O` [pCT] (H-CSNLSTCVLSAYWRNLNNFHRFSGMGFGPETP-NH2; disulfide 1-7), the Emax was found to be 156 ± 9% in experiment [1]; 45 ± 4% in experiment [2]; 104 ± 7% in experiment [3]; 89 ± 4% in experiment [4]; 51 ± 3% in experiment [5]. Besides, the EC50 in experiment [1] was 1.91 nM; in experiment [2] it was 7.59 nM; in experiment [3], 0.55 nM; in experiment [4], 2.63 nM; in experiment [5] (pERK, three-parameter logistic fit), 0.933 nM.
Regarding `CC(C)C[C@H](NC(=O)[C@H](CC(N)=O)NC(=O)[C@H](CC(N)=O)NC(=O)[C@H](CO)NC(=O)[C@H](CO)NC(=O)[C@H](CCCNC(=N)N)NC(=O)[C@@H](NC(=O)[C@H](CC(C)C)NC(=O)[C@H](Cc1ccccc1)NC(=O)[C@H](CC(N)=O)NC(=O)[C@H](C)NC(=O)[C@H](CC(C)C)NC(=O)[C@H](CCCNC(=N)N)NC(=O)[C@H](CCC(N)=O)NC(=O)[C@@H](NC(=O)[C@H](C)NC(=O)[C@@H]1CSSC[C@H](NC(=O)[C@@H](N)CCCCN)C(=O)N[C@@H](CC(N)=O)C(=O)N[C@@H]([C@@H](C)O)C(=O)N[C@@H](C)C(=O)N[C@@H]([C@@H](C)O)C(=O)N1)[C@@H](C)O)C(C)C)C(=O)NCC(=O)N1CCC[C@H]1C(=O)N[C@H](C(=O)N[C@@H](CC(C)C)C(=O)N1CCC[C@H]1C(=O)N1CCC[C@H]1C(=O)N[C@H](C(=O)N[C@@H](CC(N)=O)C(=O)N[C@H](C(=O)NCC(=O)N[C@@H](CO)C(=O)N[C@@H](CC(N)=O)C(=O)N[C@H](C(=O)N[C@@H](Cc1ccc(O)cc1)C(N)=O)[C@@H](C)O)C(C)C)[C@@H](C)O)C(C)C` [rAmy], the Emax in experiment [1] is 84 ± 11%; in experiment [2], 36 ± 7%; in experiment [3] it was 96 ± 12%; in experiment [4], 77 ± 13%; in experiment [5], 51 ± 7%.
For the compound `CC(C)C[C@H](NC(=O)CNC(=O)[C@H](C)NC(=O)[C@H](CC(C)C)NC(=O)[C@H](CCCNC(=N)N)NC(=O)[C@H](Cc1cnc[nH]1)NC(=O)[C@@H](NC(=O)[C@@H](NC(=O)[C@@H]1CSSC[C@H](NC(=O)[C@H](C)N)C(=O)N[C@@H](CC(=O)O)C(=O)N[C@@H]([C@@H](C)O)C(=O)N[C@@H](C)C(=O)N[C@@H]([C@@H](C)O)C(=O)N1)C(C)C)[C@@H](C)O)C(=O)N[C@@H](CC(C)C)C(=O)N[C@@H](CO)C(=O)N[C@@H](CCCNC(=N)N)C(=O)N[C@@H](CO)C(=O)NCC(=O)NCC(=O)N[C@H](C(=O)N[C@H](C(=O)N[C@@H](CCCCN)C(=O)N[C@@H](CC(N)=O)C(=O)N[C@@H](CC(N)=O)C(=O)N[C@@H](Cc1ccccc1)C(=O)N[C@H](C(=O)N1CCC[C@H]1C(=O)N[C@H](C(=O)N[C@@H](CC(N)=O)C(=O)N[C@H](C(=O)NCC(=O)N[C@@H](CO)C(=O)N[C@@H](CCCCN)C(=O)N[C@@H](C)C(=O)N[C@@H](Cc1ccccc1)C(N)=O)C(C)C)[C@@H](C)O)C(C)C)C(C)C)C(C)C` [hαCGRP], the Emax in experiment [1] came out at 146 ± 17%; in experiment [2], 31 ± 8%; in experiment [3] it was 80 ± 12%; in experiment [4], 58 ± 7%. The EC50 is 40.7 nM in experiment [1], 112 nM in experiment [2], 20.9 nM in experiment [3] and 110 nM in experiment [4].
Take `CC[C@H](C)[C@H](NC(=O)[C@H](C)NC(=O)[C@@H](NC(=O)[C@H](CCC(N)=O)NC(=O)[C@@H]1CCCN1C(=O)[C@H](Cc1ccccc1)NC(=O)[C@@H](NC(=O)[C@H](Cc1c[nH]cn1)NC(=O)[C@H](Cc1ccccc1)NC(=O)[C@H](CCCCN)NC(=O)[C@H](CC(N)=O)NC(=O)[C@H](Cc1ccccc1)NC(=O)[C@H](CC(=O)O)NC(=O)[C@H](CCC(N)=O)NC(=O)[C@@H](NC(=O)[C@H](Cc1ccc(O)cc1)NC(=O)[C@@H](NC(=O)CNC(=O)[C@H](CC(C)C)NC(=O)[C@H](CCSC)NC(=O)[C@@H]1CSSC[C@H](N)C(=O)NCC(=O)N[C@@H](CC(N)=O)C(=O)N[C@@H](CC(C)C)C(=O)N[C@@H](CO)C(=O)N[C@@H]([C@@H](C)O)C(=O)N1)[C@@H](C)O)[C@@H](C)O)[C@@H](C)O)[C@@H](C)O)C(=O)NCC(=O)N[C@H](C(=O)NCC(=O)N[C@@H](C)C(=O)N1CCC[C@H]1C(N)=O)C(C)C` [hCT]: the maximal effect (Emax) in experiment [1] was determined as 186 ± 16%; in experiment [2] it was 64 ± 7%; in experiment [3] it was 116 ± 11%; in experiment [4], 67 ± 3%; in experiment [5] it was 56 ± 6%.

The values are drawn from paper PMC5908784, “Extracellular loops 2 and 3 of the calcitonin receptor selectively modify agonist binding and efficacy” (Biochemical Pharmacology, 2018).
